# Source: ChEMBL document CHEMBL1136129, “Design and synthesis of poly(ADP-ribose)polymerase-1 (PARP-1) inhibitors. Part 3: In vitro evaluation of 1,3,4,5-tetrahydro-benzo[c][1,6]- and [c][1,7]-naphthyridin-6-ones” (Bioorg Med Chem Lett, 2003)
# Biological target: Poly [ADP-ribose] polymerase 1 (Homo sapiens, UniProt P09874)
# Assay: Inhibition of human recombinant Poly (ADP-ribose) polymerase 1
# Sequence of Poly [ADP-ribose] polymerase 1 (P09874 whole entry): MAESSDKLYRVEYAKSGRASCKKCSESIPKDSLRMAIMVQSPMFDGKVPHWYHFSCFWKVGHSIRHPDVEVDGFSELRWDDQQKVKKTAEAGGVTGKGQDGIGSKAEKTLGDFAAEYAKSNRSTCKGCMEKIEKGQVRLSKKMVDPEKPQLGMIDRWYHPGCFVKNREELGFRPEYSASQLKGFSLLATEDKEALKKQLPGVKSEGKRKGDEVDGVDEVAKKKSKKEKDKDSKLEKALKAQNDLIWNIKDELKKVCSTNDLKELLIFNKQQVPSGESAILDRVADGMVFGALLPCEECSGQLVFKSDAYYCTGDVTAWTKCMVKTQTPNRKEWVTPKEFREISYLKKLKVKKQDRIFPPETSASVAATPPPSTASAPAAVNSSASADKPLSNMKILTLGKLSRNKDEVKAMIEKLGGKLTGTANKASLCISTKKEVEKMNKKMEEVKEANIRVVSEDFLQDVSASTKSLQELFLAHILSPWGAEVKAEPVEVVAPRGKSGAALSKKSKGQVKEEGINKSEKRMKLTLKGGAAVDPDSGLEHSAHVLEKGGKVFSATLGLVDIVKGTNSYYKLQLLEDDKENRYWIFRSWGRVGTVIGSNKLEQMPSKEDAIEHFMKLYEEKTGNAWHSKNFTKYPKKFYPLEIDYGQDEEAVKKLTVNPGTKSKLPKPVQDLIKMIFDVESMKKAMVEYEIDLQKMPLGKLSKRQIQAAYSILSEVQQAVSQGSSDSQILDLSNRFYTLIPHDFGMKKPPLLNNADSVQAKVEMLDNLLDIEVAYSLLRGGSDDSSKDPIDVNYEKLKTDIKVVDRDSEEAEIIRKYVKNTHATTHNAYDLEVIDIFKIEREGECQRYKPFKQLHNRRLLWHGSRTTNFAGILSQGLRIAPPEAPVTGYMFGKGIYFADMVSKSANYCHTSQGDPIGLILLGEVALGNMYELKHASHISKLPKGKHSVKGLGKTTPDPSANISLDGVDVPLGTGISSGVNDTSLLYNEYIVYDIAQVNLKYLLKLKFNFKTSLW
row,Structure (SMILES),IC50 [µM]
1,O=C(CCN1CCCCC1)N1CCc2c(nc(O)c3ccccc23)C1,0.24
2,N[C@@H](CCC(=O)N1CCc2nc(O)c3ccccc3c2C1)C(=O)O,0.089
3,O=C([C@@H]1CCCN1)N1CCc2c(nc(O)c3ccccc23)C1,0.031
4,O=C(CN1CCN(C2CCCC2)CC1)N1CCc2c(nc(O)c3ccccc23)C1,0.116
5,O=c1[nH]c2c(c3ccccc13)CCN(S(=O)(=O)CCN1CCCCC1)C2,0.376
6,O=C(CCN1CCC(N2CCCC2)CC1)N1CCc2c(nc(O)c3ccccc23)C1,0.243
7,Oc1nc2c(c3ccc(F)cc13)CNCC2,0.02
8,O=c1[nH]c2c(c3ccccc13)CN(S(=O)(=O)CCN1CCC(N3CCCC3)CC1)CC2,0.357
9,Oc1nc2c(c3ccccc13)CCNC2,0.03
10,O=S(=O)(CCN1CCC(N2CCCC2)CC1)N1CCc2c(nc(O)c3ccccc23)C1,0.349
11,Oc1nc2c(c3ccccc13)CCCC2,0.167
12,O=C(CCN1CCCCC1)N1CCc2[nH]c(=O)c3cc(F)ccc3c2C1,0.025
13,O=C(CCN1CCC(N2CCCC2)CC1)N1CCc2nc(O)c3cc(F)ccc3c2C1,0.032
14,O=C(CN1CCC(N2CCCC2)CC1)N1CCc2nc(O)c3ccccc3c2C1,0.185

# Tested on: not listed separately
# Assay: Effective concentration was determined from in vitro cellular peroxide toxicity assay
# Format: functional
row,Structure (SMILES),EC50 [µM]
1,N[C@@H](CCC(=O)N1CCc2nc(O)c3ccccc3c2C1)C(=O)O,30
2,O=C([C@@H]1CCCN1)N1CCc2c(nc(O)c3ccccc23)C1,0.1
3,O=C(CN1CCN(C2CCCC2)CC1)N1CCc2c(nc(O)c3ccccc23)C1,0.69
4,O=c1[nH]c2c(c3ccccc13)CCN(S(=O)(=O)CCN1CCCCC1)C2,2.79
5,Oc1nc2c(c3ccc(F)cc13)CNCC2,0.04
6,Oc1nc2c(c3ccccc13)CCNC2,0.045
7,O=S(=O)(CCN1CCC(N2CCCC2)CC1)N1CCc2c(nc(O)c3ccccc23)C1,1.78
8,O=C(CCN1CCCCC1)N1CCc2[nH]c(=O)c3cc(F)ccc3c2C1,0.03
9,O=C(CN1CCCCC1)N1CCc2nc(O)c3ccccc3c2C1,0.06
10,O=C(CCN1CCC(N2CCCC2)CC1)N1CCc2nc(O)c3cc(F)ccc3c2C1,0.61
11,O=C(CCN1CCCCC1)N1CCc2nc(O)c3ccccc3c2C1,0.058
12,O=C(CN1CCCCC1)N1CCc2c(nc(O)c3ccccc23)C1,0.26
13,Oc1nc2c(c3ccccc13)CNCC2,0.04
14,O=C(CN1CCC(N2CCCC2)CC1)N1CCc2nc(O)c3ccccc3c2C1,0.85
